We go through 92 compounds from PubChem BioAssay AID463203 (Broad Institute, 2010).

Activity calls are given as the source filed them.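 Rule for the calls: active = more than half of replicate measurements showing over 20% loss of kinase signal relative to plate controls; inconclusive = some but at most half of replicates over 20% loss; inactive = no replicate over 20% signal loss.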

For the experiment, the target named is Glycogen synthase kinase-3 alpha (Homo sapiens) (UniProt P49840). The experiment can be described thus: concentration-response blocking of human GSK3A – biochemical, luminescence, cell-free homogeneous, retest, dose response (AID 463203). The conditions noted are these: GSK-3 alpha enzyme, ADP-Glo luminescence, 60 min. For orientation: ADP-Glo turns the ADP formed in a reaction into a luminescent signal.
Chain of Glycogen synthase kinase-3 alpha (Homo sapiens) (P49840 whole entry, looked up): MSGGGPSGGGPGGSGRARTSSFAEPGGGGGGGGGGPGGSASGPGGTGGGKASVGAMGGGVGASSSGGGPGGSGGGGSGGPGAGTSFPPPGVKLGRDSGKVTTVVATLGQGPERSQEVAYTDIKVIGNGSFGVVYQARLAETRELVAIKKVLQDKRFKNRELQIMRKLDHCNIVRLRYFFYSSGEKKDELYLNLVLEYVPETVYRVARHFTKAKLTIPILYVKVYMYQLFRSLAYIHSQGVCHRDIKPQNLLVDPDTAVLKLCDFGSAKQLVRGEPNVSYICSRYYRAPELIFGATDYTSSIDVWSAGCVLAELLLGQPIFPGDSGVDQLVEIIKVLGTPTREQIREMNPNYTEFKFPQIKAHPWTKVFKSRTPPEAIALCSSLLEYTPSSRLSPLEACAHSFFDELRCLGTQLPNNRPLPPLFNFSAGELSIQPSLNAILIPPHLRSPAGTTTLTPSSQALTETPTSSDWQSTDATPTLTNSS

For orientation: AC50 means the midpoint of the concentration-response curve, whichever way the signal moves. Consider `CCn1nc(-c2ccccc2)nc2c(=O)n(C)c(=O)nc1-2`, for which the concentration at half-maximal activity (AC50) was 27.3 µM. Turning to `CCSc1nc2c(c(=O)[nH]1)C(c1ccc(C)cc1)C1=C(CCCC1=O)N2` (configuration not stated), the AC50 is > 30 µM (inactive). As for `CN1CCN(c2ccc(NC(=O)c3ccc(Br)o3)cc2)CC1`, the AC50 was > 30 µM (inactive). In the case of `COc1cccc(Nc2nc(N)c([N+](=O)[O-])c(NCc3ccco3)n2)c1`, the AC50 was 5.75 µM.

As for `O=C(c1ccc(Cl)cc1)c1cnc(Nc2ccccc2Cl)s1`, the AC50 is > 30 µM (inactive).

With `CCc1c(C)c(C#N)c2nc3ccccc3n2c1NCC1CCCO1` (configuration not stated), the AC50 is 12.6 µM. For the compound `CC(=O)c1cccc(-c2ccc3c(=O)[nH]c(Nc4ccccc4)cc3c2)c1`, the AC50 was > 30 µM (inactive).

With `CCCCCCCNc1nc(Cl)nc(NCCO)n1`, the AC50 is > 30 µM (inactive).

Take `O=[N+]([O-])c1cccnc1NCCc1ccccc1`: the AC50 is > 30 µM (inactive). With `NC(=O)c1oc2ccccc2c1NC(=O)c1ccc(F)cc1`, the AC50 is > 30 µM (inactive).

`CN1/C(=C/C=C(C#N)C#N)C(C)(C)c2ccccc21`: the AC50 was > 30 µM (inactive). Next, `CN(Cc1c(C(=O)N/N=C/c2cccc(O)c2)nnn1-c1nonc1N)c1ccccc1`: 2.8 µM. The figure for `O=C(O)CN1C(=O)C2C3CC(C2C1=O)C1C(c2ccccc2)c2sc(=O)[nH]c2SC31` (configuration not stated) is > 30 µM (inactive); for `CCOC(=O)c1nc(NCc2ccccc2F)c2ccccc2n1` it is > 30 µM (inactive); for `NC(=O)c1cn(C2OC(CO)C(O)C2O)c2ncnc(N)c12` (configuration not stated) it is 6.52 µM.

On to `COc1ccc(Br)cc1C(=O)Nc1cccc(NC(=O)c2ccco2)c1`, for which the AC50 is > 30 µM (inactive).

Consider `COc1cccc(C2CC(=O)N3CN(c4ccccc4F)CSC3=C2C#N)c1` (configuration not stated), for which the AC50 is > 30 µM (inactive). On to `CC(C)(C)N1C(=O)c2ccc(C(=O)O)cc2C1=O`, for which the AC50 was > 30 µM (inactive). Take `CC1(C)Cc2c(sc3nn[nH]c(=O)c23)CO1`: the AC50 was > 30 µM (inactive). In the case of `C[C@H]1CN([C@@H](C)CO)C(=O)c2cccc(NC(=O)c3cnccn3)c2O[C@@H]1CN(C)S(=O)(=O)c1ccc(F)cc1`, the AC50 was 7.19 µM. As for `O=[N+]([O-])c1ccccc1/C=N/n1c(-c2cccnc2)n[nH]c1=S`, the AC50 is 28 µM. As for `C(=N\Nc1ncnc2sc3c(c12)CCC3)/c1ccncc1`, the AC50 was 5.85 µM. In the case of `O=c1[nH]nc(SCCS(=O)(=O)c2ccc(F)cc2)n1-c1ccccc1`, the half-maximal activity concentration (AC50) was 22.9 µM. As to `CCc1ccc(OCC(O)CNC(C)(C)C)cc1` (configuration not stated), the AC50 is > 30 µM (inactive).

With `CCOC(=O)c1c(NC(=O)CN2C(=O)NC3(CCCCC3C)C2=O)sc(C(=O)N(C)C)c1C` (configuration not stated), the AC50 was > 30 µM (inactive). As to `CC1(C)CC(=O)C(C=NCCc2ccc(O)cc2)=C(O)C1`, the AC50 was > 30 µM (inactive). Take `CCc1c(C)c(C#N)c2nc3ccccc3n2c1NC`: the AC50 was > 30 µM (inactive).

With `O=C(NC(=S)Nc1cccc2c(O)cccc12)c1ccccc1[N+](=O)[O-]`, the AC50 was > 30 µM (inactive). Take `O=[N+]([O-])c1cc(S(=O)(=O)N2CCCC2)ccc1NCCCN1CCOCC1`: the AC50 is > 30 µM (inactive).

Consider `Cc1cccc(C)c1OC(=O)C(c1ccccc1)c1ccccc1`, for which the AC50 was > 30 µM (inactive). As to `COc1cc2sc(C)nc2c2ccccc12`, the AC50 is > 30 µM (inactive). As for `COc1cc(/C=N/NC(=O)c2cnccn2)ccc1O`, the AC50 is > 30 µM (inactive). Take `CNC(=O)NCC12CC3CC(CC(C3)C1)C2`: the AC50 is > 30 µM (inactive).

On to `CCOC(=O)c1nc(NCc2cccnc2)c2ccccc2n1`, for which the AC50 is > 30 µM (inactive). On to `CCOC(=O)c1c(NC(=O)Cc2cccs2)sc2c1CCCC2`, for which the AC50 was > 30 µM (inactive).

Regarding `CCOC(=O)c1cc(-c2ccc(F)cc2)n(CC(=O)NCc2ccccn2)c1C`, the AC50 was > 30 µM (inactive). Consider `CC(C)CNc1cc(N2CCCC2)ccc1[N+](=O)[O-]`, for which the AC50 is > 30 µM (inactive). In the case of `COc1ccc(/C=N/NC(=O)CSCc2ccc([N+](=O)[O-])cc2)cc1OC`, the AC50 was > 30 µM (inactive). As for `COC(=O)c1sc2nc(N3CCCCC3)c3c(c2c1N)CCCC3`, the AC50 was > 30 µM (inactive). In the case of `O=C(CSc1nnc(SCc2ccc(Cl)cc2)s1)N/N=C/c1ccccc1C(=O)O`, the AC50 is > 30 µM (inactive). In the case of `CC(=O)c1sc(NC(=O)CN2C(=O)NC3(CCCC3)C2=O)nc1-c1ccccc1`, the AC50 was 20.7 µM.

Consider `Cc1ccc(-c2nnc3n2N=C(c2ccc(Br)cc2)CS3)cc1`, for which the AC50 was > 30 µM (inactive).

On to `COc1ccc(-n2c(C)nc(N)c2C(=O)c2ccccc2)cc1`, for which the AC50 is > 30 µM (inactive). Consider `CN(C)/N=C/c1cn(-c2ccccc2)nc1-c1cccnc1`, for which the AC50 is > 30 µM (inactive). On to `COc1cccc(/C=N/NC(=O)c2nnn(-c3nonc3N)c2-c2cccs2)c1`, for which the AC50 is 0.899 µM. As to `COc1cccc(NC(=O)CN(C)C(=O)C23CC4CC(CC(Cl)(C4)C2)C3)c1`, the AC50 was > 30 µM (inactive). Turning to `CC(C)(C)CNc1cc(N2CCCC2)ccc1[N+](=O)[O-]`, the AC50 is > 30 µM (inactive). Regarding `Cc1ccc(/C=N/NC(=O)c2nnn(-c3nonc3N)c2CN(C)C)o1`, the AC50 was > 30 µM (inactive). Turning to `CC(C)CC(=O)Nc1ccc(-c2cn3cccnc3n2)cc1`, the AC50 is > 30 µM (inactive). Take `COC(=O)c1oc2ccc(Cl)cc2c1N`: the AC50 was > 30 µM (inactive). For `CC(C)(C)NC(=O)CSc1ncccc1-c1nc2ccccc2[nH]1`, the AC50 is > 30 µM (inactive). Turning to `CCn1c2ccc(F)cc2c2nc3ccccc3nc21`, the AC50 was > 30 µM (inactive).

In the case of `O=[N+]([O-])c1ccc(N/N=C/c2ccc(OCc3cccc4ccccc34)cc2)nc1`, the AC50 was > 30 µM (inactive). For the compound `Cc1nc2cc(-c3ccccc3)ccc2o1`, the AC50 is > 30 µM (inactive). For `O=C(Nc1ccsc1C(=O)O)c1ccccc1`, the AC50 is > 30 µM (inactive). Take `Cc1ccc(-c2c3c(=O)n(C)c(=O)n(C)c3cn2Cc2ccccn2)cc1`: the AC50 is > 30 µM (inactive). As to `CCOC(=O)c1cc(CC)sc1NC(=O)CN1CCN(C(=O)c2ccco2)CC1`, the AC50 was > 30 µM (inactive).

Consider `COc1ccccc1C(=O)O/N=C(\N)c1ccccn1`, for which the AC50 is > 30 µM (inactive). The figure for `Cc1nc2ncnn2c(C)c1Cc1ccccc1Cl` is > 30 µM (inactive); for `Cc1cc(NC(=O)CSc2nc3ccccc3c(=O)n2CCCC(=O)NCc2ccco2)n[nH]1` it is > 30 µM (inactive). Consider `C=CCn1c(O)c(C=NC2CCN(Cc3ccccc3)CC2)c(=O)[nH]c1=O`, for which the AC50 is > 30 µM (inactive). Regarding `CN1CCC(=NNC(=O)C(=O)NC2CCCC2)CC1`, the AC50 was > 30 µM (inactive). Take `CC(=O)Nc1ccc(NS(=O)(=O)c2cccc3nonc23)cc1`: the AC50 is > 30 µM (inactive).

Consider `CCOC(=O)c1nc2sc3c(c2c(=O)[nH]1)CCC(C)C3` (configuration not stated), for which the AC50 is > 30 µM (inactive). With `NS(=O)(=O)c1ccc(N=Nc2ccc(=O)[nH]c2O)cc1`, the AC50 is 6.56 µM.

Take `CCOC(=O)c1cc(-c2ccc(F)cc2)n(CC(=O)NCc2cccnc2)c1C`: the AC50 is > 30 µM (inactive). Take `COc1ccc(/C=C/c2nc(N)nc(-c3ccccc3O)n2)cc1OC`: the AC50 was > 30 µM (inactive).

As to `COc1ccc(NC(=O)CN(C)C2CCCCC2)c([N+](=O)[O-])c1`, the AC50 was > 30 µM (inactive). Turning to `COCCCNc1nc2nonc2nc1NCCSC`, the AC50 is > 30 µM (inactive). In the case of `COc1cc(C2c3sc(=O)[nH]c3SC3C4CCC(C4)C23)ccc1O` (configuration not stated), the AC50 was 1.22 µM. In the case of `O=C1c2cnc3ncnn3c2CC2c3ccccc3CCN12` (configuration not stated), the AC50 is > 30 µM (inactive). Take `CCOC(=O)c1ccc(N2CSC3=C(C#N)C(c4cccs4)CC(=O)N3C2)cc1` (configuration not stated): the AC50 was > 30 µM (inactive). Regarding `CC(C(=O)Nc1cccc(Br)c1)c1ccc([N+](=O)[O-])cc1` (configuration not stated), the AC50 is > 30 µM (inactive). In the case of `COc1cc(/C=N/NC(=O)c2ccncc2)ccc1OCCN1CCCCC1`, the AC50 is > 30 µM (inactive). Turning to `CCOC(=O)c1cc(C)sc1NC(=O)CCC(=O)O`, the AC50 is > 30 µM (inactive). Turning to `CCOc1cccc(-c2c(C(=O)N/N=C/c3ccoc3)nnn2-c2nonc2N)c1`, the AC50 was 6.81 µM.

In the case of `NNC(=O)/C(=N/Nc1ccccc1)S(=O)(=O)c1ccc(Cl)cc1`, the AC50 was > 30 µM (inactive). For `Cc1cccc2c(N=Nc3ccccc3)c(O)[nH]c12`, the AC50 was > 30 µM (inactive). With `O=C(COc1cccc2cccnc12)N/N=C/c1ccccc1O`, the AC50 was > 30 µM (inactive). Next, `Clc1cccc(/C=N/Nc2ncnc3ccccc23)c1`: > 30 µM (inactive); `Cc1nc(NCC2CCCO2)[nH]c(=O)c1CCC(C)C` (configuration not stated): > 30 µM (inactive). Turning to `COc1cc(C(=O)NNC(=O)C2CSC3(C)CCC(=O)N23)cc(OC)c1OC` (configuration not stated), the AC50 was > 30 µM (inactive). Take `Cc1cccc(N2CC(C(=O)Nc3nccs3)CC2=O)c1C` (configuration not stated): the AC50 is > 30 µM (inactive). For `COc1cccc(CN2CCN(Cc3cc(OC)c(OC)cc3[N+](=O)[O-])CC2)c1`, the AC50 was > 30 µM (inactive). For `COc1cc(C2c3sc(=O)[nH]c3SC3C(=O)N(c4ccc(C)cc4)C(=O)C32)ccc1O` (configuration not stated), the AC50 was > 30 µM (inactive). `CC(=O)Nc1cccc(-c2csc(N)n2)c1`: the AC50 was > 30 µM (inactive). For the compound `CN1/C(=C/C(=S)NC(=O)C2CCC2)C(C)(C)c2ccccc21`, the AC50 was > 30 µM (inactive). With `CCOC(=O)N1CC=C2C(C#N)=C(N)C(C#N)(C#N)[C@H](c3cccs3)C2C1` (some centres not stated), the AC50 was 23.1 µM.

Regarding `O=[N+]([O-])c1cccc(-c2ccn[nH]2)c1`, the AC50 was > 30 µM (inactive).

As to `O=C(COC(=O)Cc1ccsc1)Nc1ccc(Cl)cn1`, the AC50 was 28.4 µM. On to `CC1(C)Cc2nc3oc4c(=S)nc[nH]c4c3cc2CO1`, for which the AC50 was 17 µM.

In the case of `O=C(O)c1ccc(Cl)c(NC(=O)C2CCCN2S(=O)(=O)c2cccc3nsnc23)c1` (configuration not stated), the AC50 is 19.1 µM.
